Test results from patent US20240325394A1, “SALT AND CRYSTAL FORM OF NITROGEN-CONTAINING HETEROCYCLIC DERIVATIVE, PREPARATION METHOD THEREFOR AND APPLICATION THEREOF” (SHANGHAI HANSOH BIOMEDICAL CO., LTD., priority 2020, published 2024).
Counter-ions that a name gives are not always drawn.

Columns and labels:
[1] = Solid stability of crystal form, XRPD after stress conditions; type: physicochemical
[2] = Thermodynamic solubility in different media (FaSSGF, FaSSIF, FeSSIF, water) at 37° C.; type: physicochemical; conditions: 24 hours
[3] = Solid stability (10 days), impurity increase by HPLC; type: physicochemical
human KRAS G12C protein = target: T1, human KRAS G12C protein (Homo sapiens, UniProt P01116, G12C); experiment: Thermal shift: melting temperature of KRAS G12C protein; type: binding; conditions: KRAS G12C protein 5.37 μM with compound 10 μM, 1 hour
T1 construct: purchased Beijing SinoBiological Co., Ltd. 12259-H07E2
Description: In this experiment, the thermal shift method was used to test the degree of change in the melting temperature (Tm) of the KRAS G12C protein before and after the binding of the compound, in order to characterize the ability of the compound to improve the stability of the KRAS G12C protein.
The specific experiment operation was as follows: • A solution containing […] (pH 7.5), 1 mM DTT, 5× SYPRO Orange and 150 mM NaCl was prepared as the experimental buffer, and a final concentration of 5.37 μM human KRAS G12C protein was added thereto. The reaction mixture was divided into 8 rows of PCR tubes, each 19.5 μL, and 0.5 μL of the test compound or DMSO were added respectively, so that the total reaction system was 20 μL, the final concentration of the compound was 10 μM, and 2.5% DMSO was set as the solvent control. After incubating at room temperature in the dark for 1 hour, the PCR tube was put into the PCR instrument, QuantStudio Software v1.3 was opened, and the melting temperature of KRAS G12C protein in different treatment groups was detected by melt curve function (heating from 25° C. to 95° C., 0.03° C./s).
The experimental data file of PCR instrument was imported into thermal shift software, and the melting temperature (Tm) of each treatment group was obtained, and the change value of melting temperature (ATm) was obtained by subtracting the Tm of DMSO solvent control group.

[4] = Plasma stability, rat plasma; type: in vitro ADME; conditions: rat plasma, 37° C.
Description: (§1) Animal or human whole blood was collected, then the blood was put into a test tube containing anticoagulant, centrifuged at 3500 rpm for 10 min, and the upper layer of pale yellow plasma was collected. • 2) 10 μM of tested compound (m/M/V=C)
(§2) The compound was weighed, the stock solution was prepared with DMSO and the working solution was prepared with 100 mM phosphate buffer. • 3) 10 μM of positive control • (1) Propantheline (Propantheline Mr=449.4 Da)
(§3) • 1) 285 μL of plasma and 15 μL of 10 μM compound (tested compound) were added in turn in a 96-well plate, and incubated at 37° C. • 2) 40 μL was taken out at 0, 15, 30, 60, 90, 120 min, respectively, and 160 μL of acetonitrile termination solution containing internal standard was added. • 3) After centrifugation (3500 rpm, 10 min), 50 μL of supernatant was taken out, and then diluted with 50 μL DDH2O and injected to LC-MS/MS.
(§4) • instrument: Shimadzu LC-20 AD • chromatographic column: phenomenex Gemiu® C18 (50*4.6 mm, 5 μM particle size); • mobile phase: A: acetonitrile, B: 0.1% formic acid solution 0-8 min: 5% A→95% A, 2.0-2.1 min: 90% A→5% A; flow rate: 0.8 mL/min; running time: 5.0 min; injection volume: 5 μL.
(§5) • instrument: API4000 Liquid Chromatography-Mass Spectrometry, AB, USA; • the ion source was electrospray ionization source (ESI); • the temperature of dry gas (N2) was 500° C.; • electrospray voltage was 5500V; • the detection method was positive ion detection; • the scanning mode was selective response monitoring (MRM); • the scanning time was 0.1 s.

[5] = Plasma stability, dog plasma; type: in vitro ADME; conditions: dog plasma, 37° C.
Description: as §1, §2, §3, §4, §5

[6] = Plasma stability, human plasma; type: in vitro ADME; conditions: human
Description: as §1, §2, §3, §4, §5

[7] = Plasma stability, mouse plasma; type: in vitro ADME; conditions: mouse
Description: as §1, §2, §3, §4, §5

Structure (SMILES): C=CC(=O)N1C[C@H](C)N(c2nc(=O)n(-c3c(SC)ccnc3C(C)C)c3nc(-c4c(N)ccc(Cl)c4F)c(Cl)cc23)C[C@H]1C [Crystal form I of hydroxyethyl sulfonate, P-4-((2S,5R)-4-acryloyl-2,5-dimethylpiperazin-1-yl)-7-(6-amino-3-chloro-2-fluorophenyl)-6-chloro-1-(2-isopropyl-4-(methylthio)pyridin-3-yl)pyrido[2,3-d]pyrimidin-2(1H)-one]
- Crystal form of hydroxyethyl sulfonate (XRPD) ([1]; High humidity (25° C., 75%, 10 days)): Crystal form I
- Crystal form of hydroxyethyl sulfonate (XRPD) ([1]; High humidity (25° C., 90%, 10 days)): Crystal form I
- Crystal form of hydroxyethyl sulfonate (XRPD) ([1]; High temperature (40° C., 30 days)): Crystal form I
- Crystal form of hydroxyethyl sulfonate (XRPD) ([1]; High temperature (60° C., 30 days)): Crystal form I
- Crystal form of hydroxyethyl sulfonate (XRPD) ([1]; Initial crystal form): Crystal form I
- Crystal form of hydroxyethyl sulfonate (XRPD) ([1]; Light (≥1.2 × 10^6 lux-h, 10 days)): Crystal form I
- Crystal form of hydroxyethyl sulfonate (XRPD) ([1]; Micropowder): Crystal form I
- Solid stability (in words) ([1]; light, high humidity, high temperature, and micropowder conditions): relatively stable
- Solubility ([2]; FaSSGF): 314.6 µg/mL
- Solubility ([2]; FaSSIF): 158.8 µg/mL
- Solubility ([2]; FeSSIF): 347.3 µg/mL
- Solubility ([2]; H2O): 7.4 µg/mL
- Stability of solid (10 days) (impurity increase %) ([3]; 50° C. & 75% RH): 0.30%
- Stability of solid (10 days) (impurity increase %) ([3]; 60° C.): 0.26%
- Stability of solid (10 days) (impurity increase %) ([3]; 92.5% RH): 0.01%
- Stability of solid (10 days) (impurity increase %) ([3]; Light (5000±500 lux)): 0.27%

Structure (SMILES): C=CC(=O)N1CCN(c2nc(=O)n(-c3c(SC)ccnc3C(C)C)c3nc(-c4c(O)cccc4F)c(F)cc23)[C@@H](C)C1 [Embodiment 1, 4-((S)-4-Acryloyl-2-methylpiperazin-1-yl)-6-fluoro-7-(2-fluoro-6-hydroxyphenyl)-1-(2-isopropyl-4-(methylthio)pyridin-3-yl)pyrido[2,3-d]pyrimidin-2(1H)-one]
- Tm (human KRAS G12C protein): 60.2 °C

Structure (SMILES): C=CC(=O)N1C[C@H](C)N(c2nc(=O)n(-c3c(SC)ccnc3C(C)C)c3nc(-c4c(O)cccc4F)c(F)cc23)C[C@H]1C [Embodiment 2, 4-((2S,5R)-4-acryloyl-2,5-dimethylpiperazin-1-yl)-6-fluoro-7-(2-fluoro-6-hydroxyphenyl)-1-(2-isopropyl-4-(methylthio)pyridin-3-yl)pyrido[2,3-d]pyrimidin-2(1H)-one]
- Tm (human KRAS G12C protein): 57.2 °C

Structure (SMILES): C=CC(=O)N1CCN(c2nc(=O)n(-c3c(SC)ccnc3C(C)C)c3nc(-c4c(N)cccc4F)c(F)cc23)[C@@H](C)C1 [Embodiment 5, 4-((S)-4-acryloyl-2-methylpiperazin-1-yl)-7-(2-amino-6-fluorophenyl)-6-fluoro-1-(2-isopropyl-4-(methylthio)pyridin-3-yl)pyrido[2,3-d]pyrimidin-2(1H)-one]
- Tm (human KRAS G12C protein): 64.4 °C

Structure (SMILES): C=CC(=O)N1CCN(c2nc(=O)n(-c3c(SC)ccnc3C(C)C)c3nc(-c4c(N)ccc(Cl)c4F)c(Cl)cc23)[C@@H](C)C1 [Embodiment 9, 4-((S)-4-acryloyl-2-methylpiperazin-1-yl)-7-(6-amino-3-chloro-2-fluorophenyl)-6-chloro-1-(2-isopropyl-4-(methylthio)pyridin-3-yl)pyrido[2,3-d]pyrimidin-2(1H)-one]
- Tm (human KRAS G12C protein): 60.2 °C

Structure (SMILES): C=CC(=O)N1C[C@H](C)N(c2nc(=O)n(-c3c(SC)ccnc3C(C)C)c3nc(-c4c(N)ccc(Cl)c4F)c(Cl)cc23)C[C@H]1C [Embodiment 13, 4-((2S,5R)-4-acryloyl-2,5-dimethylpiperazin-1-yl)-7-(6-amino-3-chloro-2-fluorophenyl)-6-chloro-1-(2-isopropyl-4-(methylthio)pyridin-3-yl)pyrido[2,3-d]pyrimidin-2(1H)-one]
- Tm (human KRAS G12C protein): 58.0 °C

Structure (SMILES): CC[C@H](C)C(=O)O[C@H]1C[C@@H](C)C=C2C=C[C@H](C)[C@H](CC[C@@H]3C[C@@H](O)CC(=O)O3)[C@H]21 [Lovastatin, reference compound]
- t1/2 [4]: 6.69 min
- Residual rate (%) 0 min ([4]; 0 min): 100.00%
- Residual rate (%) 15 min ([4]; 15 min): 21.15%
- Residual rate (%) 30 min ([4]; 30 min): 1.77%
- Residual rate (%) 60 min ([4]; 60 min): 0.36%
- Residual rate (%) 120 min ([4]; 120 min): 0.30%
- t1/2 [5]: 80.22 min
- Residual rate (%) 0 min ([5]; 0 min): 100.00%
- Residual rate (%) 15 min ([5]; 15 min): 95.25%
- Residual rate (%) 30 min ([5]; 30 min): 95.45%
- Residual rate (%) 60 min ([5]; 60 min): 75.66%
- Residual rate (%) 120 min ([5]; 120 min): 36.25%

Structure (SMILES): CC(C)[N+](C)(CCOC(=O)C1c2ccccc2Oc2ccccc21)C(C)C [Propantheline, reference compound]
- Residual rate (%) 0 min ([6]; 0 min, 0.5 μM): 100.00%
- Residual rate (%) 15 min ([6]; 15 min, 0.5 μM): 79.98%
- Residual rate (%) 30 min ([6]; 30 min, 0.5 μM): 50.52%
- Residual rate (%) 60 min ([6]; 60 min, 0.5 μM): 14.65%
- Residual rate (%) 120 min ([6]; 120 min, 0.5 μM): 0.72%
- half-life at 0.5 μM ([6]; plasma): 21 min
- Residual rate (%) 0 min ([7]; 0 min, 0.5 μM): 100.00%
- Residual rate (%) 15 min ([7]; 15 min, 0.5 μM): 79.79%
- Residual rate (%) 30 min ([7]; 30 min, 0.5 μM): 48.66%
- Residual rate (%) 60 min ([7]; 60 min, 0.5 μM): 23.39%
- Residual rate (%) 120 min ([7]; 120 min, 0.5 μM): 6.66%
- half-life at 0.5 μM ([7]; plasma): 27.7 min

Structure (SMILES): C=CC(=O)N1C[C@H](C)N(c2nc(=O)n(-c3c(SC)ccnc3C(C)C)c3nc(-c4c(N)ccc(Cl)c4F)c(Cl)cc23)C[C@H]1C [crystal form II of sulfate, P-4-((2S,5R)-4-acryloyl-2,5-dimethylpiperazin-1-yl)-7-(6-amino-3-chloro-2-fluorophenyl)-6-chloro-1-(2-isopropyl-4-(methylthio)pyridin-3-yl)pyrido[2,3-d]pyrimidin-2(1H)-one]
- Solubility ([2]; FaSSGF): 386.5 µg/mL
- Solubility ([2]; FaSSIF): 150.3 µg/mL
- Solubility ([2]; FeSSIF): 383.5 µg/mL
- Solubility ([2]; H2O): 13.2 µg/mL
- Stability of solid (10 days) (impurity increase %) ([3]; 50° C. & 75% RH, HPLC peak area normalization): 0.15%
- Stability of solid (10 days) (impurity increase %) ([3]; 60° C., HPLC peak area normalization): 0.91%
- Stability of solid (10 days) (impurity increase %) ([3]; 92.5% RH, HPLC peak area normalization): 0.56%
- Stability of solid (10 days) (impurity increase %) ([3]; Light (5000±500 lux), HPLC peak area normalization): 1.12%
- Solid stability (in words) ([3]; light, high humidity, high temperature and high humidity conditions): relatively stable
